Measured values taken from ChEMBL document CHEMBL4477227, “Synthesis and antibacterial evaluation of macrocyclic diarylheptanoid derivatives” (Bioorg Med Chem Lett, 2016).
Converted amounts (≈) assume the structure as drawn.

Tests used:
Proteus mirabilis = assay: Antibacterial activity against Proteus mirabilis ATCC 25933 by microbroth dilution method; type: functional
Burkholderia cepacia = assay: Antibacterial activity against Burkholderia cepacia ATCC 25416 by microbroth dilution method; type: functional
Escherichia coli [1] = assay: Antibacterial activity against Escherichia coli harboring TolC deletion mutant by microbroth dilution method; type: functional; conditions: Escherichia coli; read-out: MIC
Staphylococcus aureus [2] = assay: Antibacterial activity against methicillin-resistant Staphylococcus aureus NRS70 by microbroth dilution method; type: functional; conditions: Staphylococcus aureus, NRS70; read-out: MIC
Acinetobacter baumannii = assay: Antibacterial activity against Acinetobacter baumannii ATCC 19606 by microbroth dilution method; type: functional, ATCC 19606 = CIP 70.34 = JCM 6841; conditions: Acinetobacter baumannii, ATCC 19606 = CIP 70.34 = JCM 6841; read-out: MIC
Vero = assay: Cytotoxicity against African green monkey Vero cells assessed as reduction in cell viability after 72 hrs by CellTiterGlo assay; type: cell-based; conditions: Chlorocebus sabaeus
Bacillus anthracis = assay: Antibacterial activity against Bacillus anthracis Sterne 34F2 by microbroth dilution method; type: functional; conditions: Bacillus anthracis, Sterne 34F2; read-out: MIC
Staphylococcus aureus [3] = assay: Antibacterial activity against methicillin-sensitive Staphylococcus aureus ATCC 29213 by microbroth dilution method; type: functional; conditions: Staphylococcus aureus, ATCC 29213; read-out: MIC
Proteus vulgaris = assay: Antibacterial activity against Proteus vulgaris ATCC 33420 by microbroth dilution method; type: functional
[4] = tested on: Mycobacterium tuberculosis; assay: Antitubercular activity against Mycobacterium tuberculosis H37Rv by microbroth dilution method; type: functional; conditions: Mycobacterium tuberculosis, H37Rv; read-out: MIC
Streptococcus pneumoniae = assay: Antibacterial activity against Streptococcus pneumoniae R6 by microbroth dilution method; type: functional; conditions: Streptococcus pneumoniae, R6; read-out: MIC
Enterococcus faecalis = assay: Antibacterial activity against Enterococcus faecalis ATCC 33186 by microbroth dilution method; type: functional; conditions: Enterococcus faecalis, ATCC 33186; read-out: MIC
Pseudomonas aeruginosa = assay: Antibacterial activity against Pseudomonas aeruginosa PAO1 by microbroth dilution method; type: functional
Escherichia coli [5] = assay: Antibacterial activity against Escherichia coli K-12 by microbroth dilution method; type: functional
Bacillus subtilis = assay: Antibacterial activity against Bacillus subtilis ATCC 23857 by microbroth dilution method; type: functional; conditions: Bacillus subtilis, ATCC 23857; read-out: MIC
Streptococcus pyogenes = assay: Antibacterial activity against Streptococcus pyogenes ATCC 700294 by microbroth dilution method; type: functional; conditions: Streptococcus pyogenes, ATCC 700294; read-out: MIC
Klebsiella pneumoniae = assay: Antibacterial activity against Klebsiella pneumoniae ATCC 33495 by microbroth dilution method; type: functional
J774.1 = assay: Inhibition of LPS-induced NO production in mouse J774.1 cells after 24 by Griess assay; type: functional, cell-based

SMILES | MIC (Proteus mirabilis) [µg/mL] | MIC (Burkholderia cepacia) [µg/mL] | MIC (Escherichia coli [1]) [µg/mL] | MIC (Staphylococcus aureus [2]) [µg/mL] | MIC (Acinetobacter baumannii) [µg/mL] | IC50 (Vero) [µg/mL] | MIC (Bacillus anthracis) [µg/mL] | MIC (Staphylococcus aureus [3]) [µg/mL] | MIC (Proteus vulgaris) [µg/mL] | MIC [4] [µg/mL] | MIC (Streptococcus pneumoniae) [µg/mL] | MIC (Enterococcus faecalis) [µg/mL] | MIC (Pseudomonas aeruginosa) [µg/mL] | MIC (Escherichia coli [5]) [µg/mL] | MIC (Bacillus subtilis) [µg/mL] | MIC (Streptococcus pyogenes) [µg/mL] | MIC (Klebsiella pneumoniae) [µg/mL] | IC50 (J774.1) [µM]
COc1ccc2cc1Oc1cc(ccc1OC)CCC(NCCc1ccc(Br)cc1)CCCC2 (centres undefined) | > 100 | > 100 | 12.5 (≈ 23.8 µM) | 12.5 (≈ 23.8 µM) | 50 (≈ 95.3 µM) | 6.9 (≈ 13.2 µM) | 12.5 (≈ 23.8 µM) | 12.5 (≈ 23.8 µM) | > 100 | 25 (≈ 47.7 µM) | 50 (≈ 95.3 µM) | 12.5 (≈ 23.8 µM) | > 100 | > 100 | 6.25 (≈ 11.9 µM) | 50 (≈ 95.3 µM) | > 100 | 
Oc1ccc2cc1Oc1cc(ccc1O)CCC(NCCc1ccccc1)CCCC2 (centres undefined) | > 100 | > 100 | 25 (≈ 59.9 µM) | 50 (≈ 120 µM) | 50 (≈ 120 µM) | 11.1 (≈ 26.6 µM) | 50 (≈ 120 µM) | > 100 | > 100 | 25 (≈ 59.9 µM) | 50 (≈ 120 µM) | 50 (≈ 120 µM) | > 100 | 100 (≈ 239 µM) | 25 (≈ 59.9 µM) | 50 (≈ 120 µM) | > 100 | 
COc1ccc2cc1Oc1cc(ccc1OC)CCC(NCCc1ccc(F)cc1)CCCC2 (centres undefined) | > 100 | > 100 | 12.5 (≈ 27 µM) | 12.5 (≈ 27 µM) | 25 (≈ 53.9 µM) | 7.3 (≈ 15.7 µM) | 25 (≈ 53.9 µM) | 25 (≈ 53.9 µM) | > 100 | 25 (≈ 53.9 µM) | 50 (≈ 108 µM) | 25 (≈ 53.9 µM) | > 100 | > 100 | 12.5 (≈ 27 µM) | 25 (≈ 53.9 µM) | > 100 | 
COc1cc2ccc1Oc1cc(ccc1OC)CCCCC(NCCc1ccc(F)cc1)CC2 (centres undefined) | > 100 | > 100 | 25 (≈ 53.9 µM) | 25 (≈ 53.9 µM) | 100 (≈ 216 µM) |  | 50 (≈ 108 µM) | 25 (≈ 53.9 µM) | > 100 | 25 (≈ 53.9 µM) | 25 (≈ 53.9 µM) | 25 (≈ 53.9 µM) | > 100 | > 100 | 12.5 (≈ 27 µM) | 50 (≈ 108 µM) | > 100 | 
COc1ccc2cc1Oc1cc(ccc1OC)CCC(NCCc1ccc3ccccc3c1)CCCC2 (centres undefined) | > 100 | > 100 | 6.25 (≈ 12.6 µM) | 6.25 (≈ 12.6 µM) | > 100 | 7 (≈ 14.1 µM) | 12.5 (≈ 25.2 µM) | 12.5 (≈ 25.2 µM) | > 100 | 25 (≈ 50.4 µM) | 25 (≈ 50.4 µM) | 12.5 (≈ 25.2 µM) | > 100 | > 100 | 6.25 (≈ 12.6 µM) | 12.5 (≈ 25.2 µM) | > 100 | 
COc1ccc2cc1Oc1cc(ccc1OC)CCC(NCCc1ccc(Cl)cc1)CCCC2 (centres undefined) | > 100 | > 100 | 6.25 (≈ 13 µM) | 12.5 (≈ 26 µM) | 25 (≈ 52.1 µM) | 6.8 (≈ 14.2 µM) | 12.5 (≈ 26 µM) | 12.5 (≈ 26 µM) | > 100 | 25 (≈ 52.1 µM) | 25 (≈ 52.1 µM) | 12.5 (≈ 26 µM) | > 100 | > 100 | 6.25 (≈ 13 µM) | 12.5 (≈ 26 µM) | > 100 | 
COc1ccc2cc1Oc1cc(ccc1OC)CCC(NCCc1ccc(F)cc1)CC2 | > 100 | > 100 | 50 (≈ 115 µM) | 100 (≈ 230 µM) | 100 (≈ 230 µM) |  | 100 (≈ 230 µM) | 50 (≈ 115 µM) | > 100 | 50 (≈ 115 µM) | 100 (≈ 230 µM) | 100 (≈ 230 µM) | > 100 | > 100 | 50 (≈ 115 µM) | 100 (≈ 230 µM) | > 100 | 
COc1ccc2cc1Oc1cccc(c1)CCC(NCCc1ccc(F)cc1)CC2 (centres undefined) | > 100 | > 100 | 12.5 (≈ 30.8 µM) | 25 (≈ 61.7 µM) | 50 (≈ 123 µM) |  | 50 (≈ 123 µM) | 25 (≈ 61.7 µM) | > 100 | 25 (≈ 61.7 µM) | 50 (≈ 123 µM) | 50 (≈ 123 µM) | > 100 | > 100 | 25 (≈ 61.7 µM) | 50 (≈ 123 µM) | > 100 | 
COc1ccc2cc1Oc1cc(ccc1OC)CCC(NC/C=C(\C)CCC=C(C)C)CCCC2 (centres undefined) | > 100 | > 100 | 6.25 (≈ 13.1 µM) | 6.25 (≈ 13.1 µM) | 25 (≈ 52.3 µM) | 5.6 (≈ 11.7 µM) | 12.5 (≈ 26.2 µM) | 12.5 (≈ 26.2 µM) | > 100 | 12.5 (≈ 26.2 µM) | 50 (≈ 105 µM) | 12.5 (≈ 26.2 µM) | > 100 | 50 (≈ 105 µM) | 3.12 (≈ 6.54 µM) | 25 (≈ 52.3 µM) | > 100 | 
COc1ccc2cc1Oc1ccc(cc1)CCC(NCCc1ccc(F)cc1)CCCC2 (centres undefined) | > 100 | > 100 | 6.25 (≈ 14.4 µM) | 6.25 (≈ 14.4 µM) | 50 (≈ 115 µM) | 3.7 (≈ 8.53 µM) | 12.5 (≈ 28.8 µM) | 12.5 (≈ 28.8 µM) | > 100 | 12.5 (≈ 28.8 µM) | 50 (≈ 115 µM) | 12.5 (≈ 28.8 µM) | > 100 | > 100 | 6.25 (≈ 14.4 µM) | 25 (≈ 57.7 µM) | > 100 | 
COc1ccc2cc1Oc1cccc(c1)CCCCC(NCCc1ccc(F)cc1)CC2 (centres undefined) | > 100 | > 100 | 12.5 (≈ 28.8 µM) | 12.5 (≈ 28.8 µM) | 50 (≈ 115 µM) |  | 25 (≈ 57.7 µM) | 25 (≈ 57.7 µM) | > 100 | 25 (≈ 57.7 µM) | 50 (≈ 115 µM) | 12.5 (≈ 28.8 µM) | > 100 | > 100 | 6.25 (≈ 14.4 µM) | 50 (≈ 115 µM) | > 100 | 
O=C1CCCCc2ccc(OC(=O)c3ccccc3)c(c2)Oc2ccc(cc2)CC1 |  |  |  |  |  |  |  |  |  |  |  |  |  |  |  |  |  | 13
